Results from patent US11136317B2, “NADPH oxidase 4 inhibitors” (ACTELION PHARMACEUTICALS LTD, priority 2015, dated 2021).
pIC50: −log10 of the molar value.

target: T1, human NOX4 (Homo sapiens, UniProt Q9NPH5); experiment: Amplex Red activity assay (cellular H2O2 formation in hNOX4 T-REx-293 cells); format: cell-based; details: tet-induced 24 h, extracellular H2O2 by Amplex Red, 60 min 25° C., geometric mean if determined several times
T1 construct: The full-length human NOX4 (NM_016931.3) transcript was cloned; expressed in transfected cells
T1 sequence (Q9NPH5 1-578): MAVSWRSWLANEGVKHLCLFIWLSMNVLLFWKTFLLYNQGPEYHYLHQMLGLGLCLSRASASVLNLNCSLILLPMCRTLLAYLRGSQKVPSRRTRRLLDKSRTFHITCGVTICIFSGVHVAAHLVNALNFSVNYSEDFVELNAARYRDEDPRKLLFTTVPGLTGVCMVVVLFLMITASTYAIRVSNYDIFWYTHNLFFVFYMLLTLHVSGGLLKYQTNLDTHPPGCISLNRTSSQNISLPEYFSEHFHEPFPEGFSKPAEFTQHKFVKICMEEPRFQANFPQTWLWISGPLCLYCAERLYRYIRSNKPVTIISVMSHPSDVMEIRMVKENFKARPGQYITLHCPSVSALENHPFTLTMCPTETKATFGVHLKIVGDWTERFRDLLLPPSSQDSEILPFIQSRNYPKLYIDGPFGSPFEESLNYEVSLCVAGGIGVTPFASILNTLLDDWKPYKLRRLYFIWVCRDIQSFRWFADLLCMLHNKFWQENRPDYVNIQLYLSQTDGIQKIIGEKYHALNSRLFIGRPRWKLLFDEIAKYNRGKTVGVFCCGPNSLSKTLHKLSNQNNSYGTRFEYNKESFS
T1 sequence (P13498 1-195 partner): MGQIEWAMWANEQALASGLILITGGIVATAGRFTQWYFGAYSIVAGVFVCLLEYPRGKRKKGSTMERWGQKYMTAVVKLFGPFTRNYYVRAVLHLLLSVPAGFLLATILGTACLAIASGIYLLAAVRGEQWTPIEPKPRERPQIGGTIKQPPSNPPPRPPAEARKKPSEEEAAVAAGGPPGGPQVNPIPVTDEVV
Protocol: The nucleotide sequence and the amino acid sequence for the human NOX4 (Entrez Gene ID 50507) is known in the art and are published. The potency and efficacy of the compounds of Formula (I) are assessed for their potential to inhibit the formation of ROS in a cellular assay.
The full-length human NOX4 (NM_016931.3) transcript was cloned into the pDONR™221 vector (Life Technologies™) in order to generate, by site-specific integration according to the recommendation of the manufacturer (Life Technologies™), a recombinant pJTI™ R4 DEST CMV-TO vector containing the NOX4 coding information controlled by tetracycline (tet) responsive tet-on cytomegalovirus promoter (hNOX4 pDEST).
Modified human embryonic kidney cells overexpressing a tet receptor (Jump-In™ T-REx™ HEK293; Life Technologies™) were transfected with the NOX4-containing tet-on vector (hNOX4 pDEST) to generate a stable recombinant cell pool (hNOX4 T-REx-293). hNOX4 T-REx-293 cells were cultured in DMEM containing 4.5 g/L glucose supplemented with 10% fetal calf serum, penicillin (100 U/mL), streptomycin (100 μg/mL), geneticin (1 mg/mL), and blasticidin (5 μg/mL) at 37° C. in air with 5% CO2. Human Nox4 expression was induced with tet (1 μg/mL) for 24 h and extracellular H2O2 was quantified using the Amplex Red reagent (Life Technologies™).
Compounds were prepared as 10 mM stock solution in DMSO vehicle, then diluted in 384-well plates using DMSO followed by a transfer of the dilutions into the assay plate. As a control, diphenylene iodonium was included at a final concentration of 10 μM. Compounds were tested at 10 concentrations in the range from 50 μM highest to 100 nM lowest.
Cellular H2O2 formation was measured using the Amplex Red reagent. […] Cells were seeded into 384-well clear bottom plates at a density of 20 000 cells per well in presence or absence of compounds. […] All wells contained 1.25% of DMSO. The plates were kept at 25° C. for 60 min. The amount of produced resorufin was detected with the Synergy™ Mx microplate reader (BioTek) with excitation and emission wavelengths set to 550 nm and 600 nm, respectively. Fluorescence was measured for each well and the fluorescence at 600 nm wavelength was compared to the fluorescence of the vehicle in place of compound. Inhibitory activities of example compounds were determined by calculating the IC50 value (the concentration of compound needed to inhibit 50% of the enzyme activity). The calculated IC50 values may fluctuate depending on the daily cellular assay performance. Fluctuations of this kind are known to those skilled in the art.

| Compound | pIC50 |
| --- | --- |
| CC1(O)CN(c2nc3cc(NC(=O)c4ccc5c(c4)CCO5)ccc3o2)C1 [Example 12, 2,3-Dihydro-benzofuran-5-carboxylic acid [2-(3-hydroxy-3-methyl-azetidin-1-yl)-benzooxazol-5-yl]-amide] | 6.16 |
| O=C(Nc1ccc2sc(N3CCC4(COC4)C3)nc2c1)c1ccc2c(c1)CCO2 [Example 115, 2,3-Dihydro-benzofuran-5-carboxylic acid [2-(2-oxa-6-aza-spiro[3.4]oct-6-yl)-benzothiazol-5-yl]-amide] | 5.47 |
| O=C(Nc1ccc2oc(N3CC(N4CCCC4)C3)nc2c1)c1ccc2c(c1)CCO2 [Example 64, 2,3-Dihydro-benzofuran-5-carboxylic acid [2-(3-pyrrolidin-1-yl-azetidin-1-yl)-benzooxazol-5-yl]-amide] | 5.67 |
| CN(C)CC1CN(c2nc3cc(NC(=O)c4ccc5c(c4)CCO5)ccc3o2)C1 [Example 66, 2,3-Dihydro-benzofuran-5-carboxylic acid [2-(3-dimethylaminomethyl-azetidin-1-yl)-benzooxazol-5-yl]-amide] | 5.38 |
| O=C(Nc1ccc2c(c1)CCO2)c1ccc2sc(N3CCS(=O)(=O)CC3)nc2c1 [Example 199, 2-(1,1-Dioxo-thiomorpholin-4-yl)-benzothiazole-5-carboxylic acid (2,3-dihydro-benzofuran-5-yl)-amide] | 4.62 |
| O=C(Nc1ccc2oc(N3CCC3c3ccccc3)nc2c1)c1ccc2c(c1)CCO2 (racemic) [Example 62, rac-2,3-Dihydro-benzofuran-5-carboxylic acid [2-(2-phenyl-azetidin-1-yl)-benzooxazol-5-yl]-amide] | 6.15 |
| O=C(Nc1ccc2oc(N3CCC4(CCCO4)CC3)nc2c1)c1ccc2c(c1)CCO2 [Example 29, 2,3-Dihydro-benzofuran-5-carboxylic acid [2-(1-oxa-8-aza-spiro[4.5]dec-8-yl)-benzooxazol-5-yl]-amide] | 6.27 |
| O=C(Nc1ccc2oc(N3CCC34CCOCC4)nc2c1)c1ccc2c(c1)CCO2 [Example 36, 2,3-Dihydro-benzofuran-5-carboxylic acid [2-(7-oxa-1-aza-spiro[3.5]non-1-yl)-benzooxazol-5-yl]-amide] | 6.39 |
| O=C(Nc1ccc2sc(N3CC[C@@H](O)C3)nc2c1)c1ccc2c(c1)CCO2 [Example 112, 2,3-Dihydro-benzofuran-5-carboxylic acid [2-((R)-3-hydroxy-pyrrolidin-1-yl)-benzothiazol-5-yl]-amide] | 5.64 |
| CCN(CC)c1nc2cc(NC(=O)c3ccc4c(c3)OCCO4)ccc2o1 [Example 175, 2,3-Dihydro-benzo[1,4]dioxine-6-carboxylic acid (2-diethylamino-benzooxazol-5-yl)-amide] | 5.87 |
| O=C(Nc1ccc2oc(N3CC4(CCCO4)C3)nc2c1)c1ccc2c(c1)CCO2 [Example 31, 2,3-Dihydro-benzofuran-5-carboxylic acid [2-(5-oxa-2-aza-spiro[3.4]oct-2-yl)-benzooxazol-5-yl]-amide] | 5.66 |
| CN(c1nc2cc(NC(=O)c3ccc4c(c3)CCO4)ccc2o1)C1CCN(C2COC2)CC1 [Example 54, 2,3-Dihydro-benzofuran-5-carboxylic acid {2-[methyl-(1-oxetan-3-yl-piperidin-4-yl)-amino]-benzooxazol-5-yl}-amide] | 5.54 |
| COC1CCN(c2nc3cc(NC(=O)c4ccc5c(c4)N(C)CCO5)ccc3o2)CC1 [Example 191, 4-Methyl-3,4-dihydro-2H-benzo[1,4]oxazine-6-carboxylic acid [2-(4-methoxy-piperidin-1-yl)-benzooxazol-5-yl]-amide] | 5.36 |
| CCN(CC)c1nc2cc(NC(=O)c3ccc4c(c3)OCO4)ccc2o1 [Example 139, Benzo[1,3]dioxole-5-carboxylic acid (2-diethylamino-benzooxazol-5-yl)-amide] | 5.96 |
| CCOCC1CCCN1c1nc2cc(NC(=O)c3ccc4c(c3)CCO4)ccc2o1 (centres unmarked) [Example 51, 2,3-Dihydro-benzofuran-5-carboxylic acid [2-(2-ethoxymethyl-pyrrolidin-1-yl)-benzooxazol-5-yl]-amide] | 5.34 |
| CN(C)CCN(C)c1nc2cc(NC(=O)c3ccc4c(c3)CCO4)ccc2s1 [Example 93, 2,3-Dihydro-benzofuran-5-carboxylic acid {2-[(2-dimethylamino-ethyl)-methyl-amino]-benzothiazol-5-yl}-amide] | 4.99 |
| O=C(Nc1ccc2c(c1)CCO2)c1ccc2sc(N3CCC34COC4)nc2c1 [Example 197, 2-(6-Oxa-1-aza-spiro[3.3]hept-1-yl)-benzothiazole-5-carboxylic acid (2,3-dihydro-benzofuran-5-yl)-amide] | 6.14 |
| O=C(Nc1ccc2sc(N3CCC(F)(F)C3)nc2c1)c1ccc2c(c1)CCO2 [Example 88, 2,3-Dihydro-benzofuran-5-carboxylic acid [2-(3,3-difluoro-pyrrolidin-1-yl)-benzothiazol-5-yl]-amide] | 5.44 |
| O=C(Nc1ccc2oc(N3CCC4(CC3)COC4)nc2c1)c1ccc2c(c1)OCO2 [Example 132, Benzo[1,3]dioxole-5-carboxylic acid [2-(2-oxa-7-aza-spiro[3.5]non-7-yl)-benzooxazol-5-yl]-amide] | 5.97 |
| CN1CCN(c2nc3cc(C(=O)Nc4ccc5c(c4)OCCO5)ccc3s2)CC1 [Example 206, 2-(4-Methyl-piperazin-1-yl)-benzothiazole-5-carboxylic acid (2,3-dihydro-benzo[1,4]dioxin-6-yl)-amide] | 4.67 |
| O=C(Nc1ccc2oc(N3CCCCC3)nc2c1)c1ccc2c(c1)OCO2 [Example 129, Benzo[1,3]dioxole-5-carboxylic acid (2-piperidin-1-yl-benzooxazol-5-yl)-amide] | 6.07 |
| O=C(Nc1ccc2oc(N3CCCC34COC4)nc2c1)c1ccc2c(c1)CCO2 [Example 24, 2,3-Dihydro-benzofuran-5-carboxylic acid [2-(2-oxa-5-aza-spiro[3.4]oct-5-yl)-benzooxazol-5-yl]-amide] | 6.45 |
| CCN(CC)c1nc2cc(NC(=O)c3ccc4c(c3)N(C)CCO4)ccc2o1 [Example 194, 4-Methyl-3,4-dihydro-2H-benzo[1,4]oxazine-6-carboxylic acid (2-diethylamino-benzooxazol-5-yl)-amide] | 5.45 |
| O=C(Nc1ccc2oc(N3CC4(CCOC4)C3)nc2c1)c1ccc2c(c1)CCO2 [Example 74, 2,3-Dihydro-benzofuran-5-carboxylic acid [2-(6-oxa-2-aza-spiro[3.4]oct-2-yl)-benzooxazol-5-yl]-amide] | 5.97 |
| O=C(Nc1ccc2c(c1)CCO2)c1ccc2sc(N3CCC34CCOC4)nc2c1 (centres unmarked) [Example 202, 2-(6-Oxa-1-aza-spiro[3.4]oct-1-yl)-benzothiazole-5-carboxylic acid (2,3-dihydro-benzofuran-5-yl)-amide] | 6.14 |
| CN1CCN(c2nc3cc(C(=O)Nc4ccc5c(c4)CCO5)ccc3s2)CC1 [Example 201, 2-(4-Methyl-piperazin-1-yl)-benzothiazole-5-carboxylic acid (2,3-dihydro-benzofuran-5-yl)-amide] | 5.54 |
